Laboratory results from US20250002569A1, “METHOD OF TREATING OSTEOARTHRITIS” (AlaMab Therapeutics, Inc., priority 2023, published 2025).
Structures can show the parent of a compound that is named as a salt.

What was measured:
Format in all cases: in vivo, Sprague Dawley (SD) rats
[1] = system: rats with osteoarthritis induced by pMMx+ACLT; test: Gait score (Coderre scoring method) in pMMx+ACLT osteoarthritis rat model; conditions: for Gait Score: Duloxetine 5 mg/kg i.g. daily
Procedure: (§1) After acclimation of the animals, the animals were evaluated for normal pain threshold (on Day 1 of study) using the Von Frey, or Up-Down, method, and for biped balance degree of the knee joint on the surgical side (right hind limb) using a biped balance tester. The rats were then anesthetized with isoflurane, and the knee joints were depilated and disinfected. Osteoarthritis was induced in the animals by partial medial meniscectomy in combination with anterior cruciate ligament transection (pMMx+ACLT). Briefly, the skin and joint cavity close to the inner side of the right knee were cut, the knee joint was placed in the maximum flexion state, with the joint cavity exposed and the medial meniscus separated. The medial ⅓ meniscus and the anterior cruciate ligament were then cut-off. For the control animal group (no osteoarthritis induction), only the skin was cut to open the joint cavity without removing the ligament or meniscus. The date of the osteoarthritis model establishment was Day 8 of the study.
(§2) One week after model establishment (Day 15 of study), before administration of treatment, the basic pain threshold of plantar pain was evaluated on the operation side for each of the animals, and the osteoarthritis model rats were evenly divided according to the basic Von Frey reaction value (2-5), with 8 animals used for each of the osteoarthritis model group (vehicle-treatment), the positive control drug (duloxetine) 5 mg/kg group, and the ALMB-0166 15 mg/kg, 25 mg/kg, and 50 mg/kg dose groups. After grouping, drug treatment was started on Day 15 of study. For each of the ALMB-0166-treated test groups, the treatment was administered intravenously, once a week, with four total doses (on Day 15, 22, 29, and 36 of the study, corresponding to day 1, 8, 15 and 22 of treatment). For the positive control group, duloxetine was administered orally every day until the end of the experimental cycle.
(§3) Weight measurements were taken for animals in each test group on Days 15, 22, 29 and 36 of the study. On Days 16, 23, 30 and 37, the gait of each animal, the change of plantar pain threshold induced by knee joint lesions on the operative side, and the weight bearing of both lower limbs were measured for each animal was scored on according to the Coderre scoring method, the Up-Down method, and bipedal balance pain testing, respectively.
Coderre gait method was used to measure the gait of each animal. The gait was measured according to the following scoring: standard (Grade 0: normal walking, 0 point); Level 1 (sight claudication, slight bending below knee joint, 2 points); Level 2 (claudication, the affected limb can touch the ground, 4 points); Level 3 (severe claudication, the affected limb leaves the ground and walk on three feet, 6 points).
(§4) The gait scoring, plantar pain threshold, and weight bearing differential were expressed as the mean and […] (Mean±SD). The data between model group and administration group at multiple time points were analyzed by repeated measures analysis of variance method with SPSS Statistics 21 software, and Tamhane's method for subsequent analysis. P<0.05 was considered to have a significant difference, and p<0.01 was considered to have a very significant difference. The final data were plotted with GraphPad Prism 6 software.

[2] = system: rats with osteoarthritis induced by pMMx+ACLT; test: Weight bearing difference of hind legs (biped balance measurement) in pMMx+ACLT osteoarthritis rat model; conditions: for Weight bearing difference of hind legs: Duloxetine 5 mg/kg i.g. daily
Procedure: as §1, §2, §3
A bipedal balance pain tester was used to evaluate the weight bearing of both lower limbs for each animal. Each animal was placed in the plexiglass cover of the biped balance pain instrument. After the animal completed their exploratory behavior, the forelimbs of the rats laid on the incline of the device, and the hind limbs stood on the left and right balance plates respectively. […] The measurements were repeated three times for each animal, with an interval of 10 seconds between each replicate measurement.
as §4

[3] = system: rats with osteoarthritis induced by pMMx+ACLT; test: Mechanical pain threshold of plantar pain (Von Frey Up-Down method, 50% MWT) in pMMx+ACLT osteoarthritis rat model; conditions: for Percent Increase in 50% MWT (g) (as compared to Day 15 of study) / Pain threshold of plantar pain, 50% MWT: Duloxetine 5 mg/kg i.g. daily
Procedure: as §1, §2, §3
The Up-Down method was used to measure the plantar pain threshold. Following the Up-Down methos, each rat was placed in a transparent enclosure with a sieve-shaped metal plate at the bottom, and the animal was allowed to adapt to about 15 minutes until the autonomous exploration and grooming activities stop. Von Frey probes were then used to vertically stimulate the middle of the hind plantar of each rat to make the plantar slightly s-shaped for 5 second, and the paw withdrawal response was observed. A positive response was noted if the paw was sharply withdrawn or there was flinching upon removal. The interval between each measurement was about 10 sec. If no response was observed after probe stimulation, it was regarded as a negative reaction.
For scoring the mechanical pain, the rats were stimulated with a series of Von Frey probes of 0.4, 0.6, 1, 1.4, 2, 4, 6, 8, 10, and 15 g). Testing was start with a 2 g probe, and if a positive reaction occurred, it was recorded as an “X,” and testing was continued with a 1.4 g probe. […] Testing was continued accordingly, using the probes successively without circumvention. […] If a positive reaction was induced even by the 0.4 g probe, the 50% MWT was recorded as 0.4 g. […]

[4] = Weight of rats with osteoarthritis induced by pMMx+ACLT; conditions: Duloxetine 5 mg/kg i.g. daily
Procedure: Male Sprague Dawley (SD) rats (Specific Pathogen Free grade; Shanghai Slac Laboratory Animal Co. Ltd) were obtained in the study. Each rat was weight at the start of treatment, with the average weight ranging from 200-220 grams. Upon arrival at the test facility, the animals were housed at five rats per cage and acclimated for five to seven days prior to initiation of treatment.
as §1, §2, §3

[5] = Day 1 (before model establishment)
[6] = duloxetine 5 mg/kg, multivariate test, p<0.05

CNCC[C@H](Oc1cccc2ccccc12)c1cccs1 [Duloxetine, Duloxetine hydrochloride]
Gait Score ([1]; Day 16 of study): 3.5 ± 0.9
Gait Score ([1]; Day 23 of study): 3.0 ± 1.1
Gait Score ([1]; Day 30 of study): 1.3 ± 1.0
Gait Score ([1]; Day 37 of study): 0.0 ± 0.0
Gait score compared to the vehicle-treated group ([1]; duloxetine 5 mg/kg, multivariate test, p>0.05): no significant different
Weight bearing difference of hind legs [2, 5]: 2.96 ± 1.88 g
Weight bearing difference of hind legs ([2]; Day 15 (treatment start)): 104.28 ± 11.40 g
Weight bearing difference of hind legs ([2]; Day 16): 95.60 ± 2.27 g
Weight bearing difference of hind legs ([2]; Day 23): 80.91 ± 1.98 g
Weight bearing difference of hind legs ([2]; Day 30): 56.80 ± 4.06 g
Weight bearing difference of hind legs ([2]; Day 37): 51.12 ± 4.81 g
Decrease in hind limb weight bearing difference over time compared with osteoarthritis model (vehicle-treated) group [2, 6]: significant
Hind limb weight bearing difference at each time point ([2]; duloxetine test group, Days 16, 23, 30 and 37, p<0.01): significant decrease
Percent Increase in 50% MWT (g) (as compared to Day 15 of study) ([3]; Day 1): 0.0%
Pain threshold of plantar pain, 50% MWT [3, 5]: 15.00 ± 0.00 g
Percent Increase in 50% MWT (g) (as compared to Day 15 of study) ([3]; Day 15): 0.7%
Pain threshold of plantar pain, 50% MWT ([3]; Day 15 (before administration of treatment)): 3.23 ± 0.64 g
Pain threshold of plantar pain, 50% MWT ([3]; Day 16): 5.27 ± 2.72 g
Percent Increase in 50% MWT (g) (as compared to Day 15 of study) ([3]; Day 16): 52.9%
Pain threshold of plantar pain, 50% MWT ([3]; Day 23): 7.11 ± 2.45 g
Percent Increase in 50% MWT (g) (as compared to Day 15 of study) ([3]; Day 23): 90.3%
Pain threshold of plantar pain, 50% MWT ([3]; Day 29): 8.47 ± 4.92 g
Percent Increase in 50% MWT (g) (as compared to Day 15 of study) ([3]; Day 30): 108.2%
Pain threshold of plantar pain, 50% MWT ([3]; Day 37): 9.84 ± 4.65 g
Percent Increase in 50% MWT (g) (as compared to Day 15 of study) ([3]; Day 37): 70.9%
Pain threshold of plantar pain over time compared with osteoarthritis model (vehicle-treated) group [3, 6]: significant increase
Pain threshold of plantar pain at each time point ([3]; duloxetine dosage group, Days 23, 30 and 37 of the study, p<0.05): significantly increased
Weight ([4]; Day 1 of study (before treatment)): 223.8 ± 7.8 g
Weight ([4]; Day 8 of study (model establishment, before treatment)): 280.1 ± 11.2 g
Weight ([4]; Day 15 of study (treatment start)): 317.8 ± 20.4 g
Weight ([4]; Day 22 of study): 353.9 ± 23.0 g
Weight ([4]; Day 29 of study): 389.9 ± 26.2 g
Weight ([4]; Day 36 of study): 423.0 ± 30.0 g
